Reference: PubChem BioAssay (NCI)
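Cultured in 96-well plates, cells were exposed to test compound for 48 hours across five concentrations. TGI: total growth inhibition.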

Experiments:
Experiment in all cases: inhibition of tumour cell growth, NCI panel, 48 h
[1] = system: SR leukemia
[2] = system: OVCAR-8 ovarian
[3] = system: UO-31 renal
[4] = system: SF-539 CNS
[5] = system: SW-620 colon
[6] = system: SNB-19 CNS
[7] = system: OVCAR-3 ovarian
[8] = system: RPMI-8226 leukemia
[9] = system: KM12 colon
[10] = system: ACHN renal
[11] = system: K-562 leukemia
[12] = system: SF-268 CNS
[13] = system: HS 578T breast
[14] = system: A549 NSCLC
[15] = system: DU-145 prostate
[16] = system: SK-MEL-2 melanoma
[17] = system: NCI-H226 lung
[18] = system: NCI-H522 lung
[19] = system: MALME-3M melanoma
[20] = system: HOP-62 NSCLC
[21] = system: EKVX NSCLC
[22] = system: LOX IMVI melanoma
[23] = system: HT29 colon
[24] = system: HCT-15 colon
[25] = system: HCT-116 colon
[26] = system: NCI/ADR-RES ovarian
[27] = system: TK-10 renal
[28] = system: NCI-H460 lung
[29] = system: SK-MEL-28 melanoma
[30] = system: IGROV1 ovarian
[31] = system: COLO 205 colon
[32] = system: HOP-92 NSCLC
[33] = system: U251 CNS
[34] = system: SN12C renal
[35] = system: T-47D breast
[36] = system: SK-MEL-5 melanoma
[37] = system: HL-60(TB) leukemia
[38] = system: MDA-MB-231 breast
[39] = system: UACC-257 melanoma
[40] = system: PC-3 prostate
[41] = system: MOLT-4 leukemia
[42] = system: CCRF-CEM leukemia
[43] = system: 786-0 renal
[44] = system: M14 melanoma
[45] = system: HCC-2998 colon
[46] = system: NCI-H23 lung
[47] = system: MCF7 breast
[48] = system: MDA-MB-435
[49] = system: MDA-N
[50] = system: CAKI-1 renal
[51] = system: OVCAR-5 ovarian
[52] = system: SF-295 CNS
[53] = system: SNB-75 CNS
[54] = system: OVCAR-4 ovarian
[55] = system: A498 renal
[56] = system: UACC-62 melanoma
[57] = system: SK-OV-3 ovarian

Measured: TGI

NCCS(=O)(=O)O
> 100 µM: [1] | [2] | [3] | [4] | [5] | [6] | [7] | [8] | [9] | [10] | [11] | [12] | [13] | [14] | [15] | [16] | [17] | [18] | [19] | [20] | [21] | [22] | [23] | [24] | [25] | [26] | [27] | [28] | [29] | [30] | [31] | [32] | [33] | [34] | [35] | [36] | [37] | [38] | [39] | [40] | [41] | [42] | [43] | [44] | [45] | [46] | [47] | [48] | [49] | [50] | [51] | [52] | [53]

O=c1[nH]nc(Cc2ccc(Cl)cc2)n1/N=C/c1c[nH]c2ccccc12
> 100 µM: [1] | [2] | [3] | [4] | [5] | [6] | [7] | [8] | [9] | [10] | [11] | [12] | [13] | [14] | [15] | [16] | [17] | [18] | [19] | [20] | [21] | [22] | [23] | [24] | [54] | [55] | [25] | [56] | [26] | [27] | [28] | [29] | [30] | [32] | [33] | [34] | [35] | [57] | [36] | [37] | [38] | [39] | [40] | [41] | [42] | [43] | [44] | [45] | [46] | [47] | [48] | [49] | [50] | [51] | [52] | [53]
